According to patent US12508225B2, “Lipid compound and use thereof in delivery of nucleic acid” (BEIJING TRICISIONBIO THERAPEUTICS INC., priority 2021, dated 2025):

Assay: TNS dye-binding assay for dissociation constant (pKa)
Assay type: physicochemical
From the text: Ionizable lipids have two main roles: binding to nucleic acids and allowing the release of the nucleic acid molecules in cells.

pKa: 6.81
Structure (SMILES): CCCCC/C=C\C/C=C\CCCCCCC(O)CNCCN(C)CCN(CC(O)CCCCCC/C=C\C/C=C\CCCCC)CC(O)CCCCCC/C=C\C/C=C\CCCCC (stereo not shown) [II-37]
